This note sets out measurements from publication PMC9077138, “An investigation on 3-acetyl-7-methoxy-coumarin Schiff bases and their Ru(II) metallates with potent antiproliferative activity and enhanced LDH and NO release” (RSC Advances, 2018).

The test system of one experiment is CT-DNA. Description: UV-Vis absorption titration with CT-DNA. Details: species or system calf. The note with it: intrinsic binding constant, Tris–HCl buffer pH 7.2. The source says:
DNA-binding studies are important for the rational design and construction of new and more efficient drugs targeted to DNA.[42] The binding affinity of the ligands and their organoruthenium(II) complexes with CT-DNA can be measured by using UV-Vis spectroscopy. The UV-Vis absorption spectra of the free ligands and their complexes in the absence and presence of CT DNA are given in Fig. S25 ^† and 7. […] The decrease in absorbance with increase in concentration of CT-DNA may be due to the decrease in transition probabilities as a result of partial transfer of electrons from the π orbital of the DNA base pairs to the coupled π* orbital of the coordinated Schiff base to metal due to overlapping.[43] The extent of hypochromism in the charge transfer band is an indication of the strength of intercalative interaction.[43]
In order to compare the DNA-binding affinities of the ligands and their metal complexes quantitatively, their intrinsic binding constants Kbin were obtained according to eqn (S1). ^† The binding constant value was calculated from the plot of [DNA]/(εa − εf) versus [DNA] and the data were given in Table 3 (Fig. 8). […] This may be due to the presence of different substituents in the terminal nitrogen atom of the ligands.
Supplementary Information
All the experiments involving CT-DNA binding were carried out in deionised water with tris(hydroxymethyl)-aminomethane (Tris, 5 mM) and sodium chloride (50 mM) and adjusted to pH 7.2 with hydrochloric acid at room temperature. The concentration of CT-DNA was determined by UV absorbance at 260 nm. Solutions of CT-DNA in Tris-HCl buffer gave a ratio of UV absorbance at 260 and 280 nm, A260/A280, of approximately 1.9, […]
The molar absorption coefficient, ε260, was taken as 6600 M−1 cm−1.Various concentrations of CT-DNA (2-2.5 µM) was added to the complexes (25 µM dissolved in DMSO/Tris-HCl buffer, 1 % DMSO in the final solution). While measuring the absorption spectra, an equal amount of DNA was added to both the test and reference solutions to eliminate the absorbance of DNA itself. Control experiments with DMSO were performed and no change in the spectra of CT-DNA was observed. Absorption spectra were recorded after equilibrium at 20 °C for 10 min. The intrinsic binding constant K b was determined by using following equation(1) [DNA]/[εa-εf]) = [DNA]/[ε b-εf]+1/Kb[εb-εf] (S1)
The absorption coefficients εa, εf and εb correspond to Aobsd/[DNA], the extinction coefficient for the free compound and for the compound in the fully bound form respectively. The slope and the intercept of the linear fit of the plot of [DNA]/[εa −εf] versus [DNA] give […] and 1/Kb[εb−εf] respectively. The intrinsic binding constant Kb can be obtained from the ratio of the slope to the intercept. […]

For a further experiment, the system named is MCF-7 cells. Description: Lactate dehydrogenase release. Format: cell-based, human. The note with it: MCF-7, IC50 concentrations, 48 h. The protocol: (§1) LDH is a stable cytoplasmic enzyme that is released into the culture medium following loss of membrane integrity and serves as a general mean to assess cytotoxicity resulting from chemical compounds or environmental toxic factors.[68] In the present study, LDH leakage into the culture medium of the compounds treated A549 and MCF-7 cells was analyzed. […] The results confirmed the cytotoxic effect of the ligands and complexes on lung and breast cancer cell lines. The compounds could induce LDH leakage as high as that of cisplatin. […] Error bars represent the standard mean error (n = 6).

The next experiment relates to A549 cells. Briefly: Lactate dehydrogenase release. It counts as cell-based, human. The note with it: A549, IC50 concentrations, 48 h. The protocol:
as §1

For the molecule `COc1ccc2[c]3c(c(=O)oc2c1)C(C)=[N+]1N=C(N)[S][Ru-4]31([C]#[O+])([P+](c1ccccc1)(c1ccccc1)c1ccccc1)[P+](c1ccccc1)(c1ccccc1)c1ccccc1` [Complex 1, [Ru(7MAC-tsc)(CO)(PPh3)2]], in the experiment with CT-DNA, the “Binding constant Kbin” value was 1.2544 ± 0.304 × 10^6 M^−1.
Consider `CNC1=N[N+]2=C(C)c3[c](c4ccc(OC)cc4oc3=O)[Ru-4]2([C]#[O+])([P+](c2ccccc2)(c2ccccc2)c2ccccc2)([P+](c2ccccc2)(c2ccccc2)c2ccccc2)[S]1` [Complex 2, [Ru(7MAC-mtsc)(CO)(PPh3)2]], for which, in the experiment on CT-DNA, the “Binding constant Kbin” value is on record as 1.3958 ± 0.320 × 10^6 M^−1.
As for `CCNC1=N[N+]2=C(C)c3[c](c4ccc(OC)cc4oc3=O)[Ru-4]2([C]#[O+])([P+](c2ccccc2)(c2ccccc2)c2ccccc2)([P+](c2ccccc2)(c2ccccc2)c2ccccc2)[S]1` [Complex 3, [Ru(7MAC-etsc)(CO)(PPh3)2]], the “LDH release into the culture medium” value in the experiment on MCF-7 cells and in the experiment with A549 cells was “more potent in inducing LDH leakage into the culture than the rest” each time. In the experiment with CT-DNA, the “Binding constant Kbin” value is listed as 1.4428 ± 0.279 × 10^6 M^−1.
For the molecule `COc1ccc2[c]3c(c(=O)oc2c1)C(C)=[N+]1N=C(Nc2ccccc2)[S][Ru-4]31([C]#[O+])([P+](c1ccccc1)(c1ccccc1)c1ccccc1)[P+](c1ccccc1)(c1ccccc1)c1ccccc1` [Complex 4, [Ru(7MAC-ptsc)(CO)(PPh3)2]], in the experiment with CT-DNA, the “Binding constant Kbin” value was 1.0636 ± 0.334 × 10^6 M^−1.
